Where two headings read alike, the source gives them in different places.
Tests used:
hCB1R [1] = biological target: T1, hCB1R (Homo sapiens, UniProt P21554); test: biochemical; type: binding
hCB1R [2] = biological target: T1, hCB1R; test: cell-based; type: cell-based
male C57BL/6 mice [3] = test: Body temperature, rectal thermometer; type: in vivo, mouse; details: 15 min post-injection; for body temperature: 10 mg/kg i.p., male mice; for effect on ∆9-THC-dependent change of body temperature: 10 mg/kg phytomolecule + 10 mg/kg ∆9-THC i.p.
Procedure: (§1) Male C57BL/6 mice between 8 and 12 weeks of age were used for these studies. Animals were group housed at the Laboratory Animal Services Unit (LASU) at the University of Saskatchewan (3 animals/cage) with a standard 12:12 light-dark cycle, ad libitum access to food and water, and environmental enrichment. Compounds were prepared in the vehicle [ethanol and cremophor in saline (1:1:8)] and administered intraperitoneally (i.p.). Catalepsy was assessed in the bar holding assay 5 min after compound administration with animals placed so that their forepaws clasped a 0.7-cm ring clamp 4.5 cm above the surface of the testing space ([Garai et al., 2020]). The length of time the ring was held was recorded up to 60 s (i.e., percent maximum possible effect [MPE] 60 s) with the trial ending if the mouse turned its head or body or made three consecutive escape attempts. Body temperature was measured 15 min after compound administration by using a rectal thermometer. Anti-nociceptive effects were measured in warm water (52 ± 2°C) using the tail-flick test 20 min after compound administration to a maximum of 20 s (i.e., percent maximum possible effect [MPE] 20 s). Compounds were administered at the doses indicated. Experimenters were blinded to treatment for all behavioral assessments and analyses. Animals were purchased, rather than bred, to reduce animal numbers. In all cases, experiments were performed with the approval of the University Animal Care Committee (UACC) at the University of Saskatchewan and in keeping with the guidelines of the Canadian Council on Animal Care (CCAC).

male C57BL/6 mice [4] = test: Anti-nociception, warm water tail-flick test; type: in vivo, mouse; details: 20 min post-injection; for anti-nociceptive effect, tail-flick: 10 mg/kg i.p., male mice; for effect on ∆9-THC-dependent anti-nociception, tail-flick: 10 mg/kg phytomolecule + 10 mg/kg ∆9-THC i.p.
Procedure: as §1

hCB1R [5] = biological target: T1, hCB1R; test: cell-based; type: cell-based; remark: listed apart in the source
male C57BL/6 mice [6] = test: Catalepsy, bar holding assay; type: in vivo, mouse; details: 5 min post-injection; for catalepsy: 10 mg/kg i.p., male mice; for effect on ∆9-THC-dependent catalepsy: 10 mg/kg phytomolecule + 10 mg/kg ∆9-THC i.p.
Procedure: as §1

[7] = CHO-K1, read-out: βarrestin2 recruitment Emax
[8] = CHO-K1, read-out: cAMP inhibition Emax
[9] = CHO-K1; read-out: βarrestin2 recruitment Emax
[10] = compound alone; 90 min; value with 95% CI; read-out: βarrestin2 recruitment EC50
[11] = CHO-K1; read-out: cAMP inhibition Emax
[12] = co-treatment with 100 nM ∆9-THC
[13] = compound alone; 10 µM forskolin, 90 min; value with 95% CI; read-out: cAMP inhibition EC50

T1 sequence (P21554 whole entry): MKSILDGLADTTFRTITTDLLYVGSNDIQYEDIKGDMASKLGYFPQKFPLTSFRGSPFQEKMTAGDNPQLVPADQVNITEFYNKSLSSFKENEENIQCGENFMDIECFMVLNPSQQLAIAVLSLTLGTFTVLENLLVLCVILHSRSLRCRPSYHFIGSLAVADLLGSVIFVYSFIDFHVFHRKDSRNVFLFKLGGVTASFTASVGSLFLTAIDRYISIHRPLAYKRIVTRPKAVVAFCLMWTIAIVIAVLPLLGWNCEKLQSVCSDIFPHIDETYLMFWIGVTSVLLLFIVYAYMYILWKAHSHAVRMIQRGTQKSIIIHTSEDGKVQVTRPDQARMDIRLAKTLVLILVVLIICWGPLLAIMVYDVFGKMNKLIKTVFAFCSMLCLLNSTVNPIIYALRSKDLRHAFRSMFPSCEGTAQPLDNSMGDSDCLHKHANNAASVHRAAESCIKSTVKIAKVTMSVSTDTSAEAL

Row | SMILES | [3H]CP55,940 Emin (hCB1R [1]) [%] | Emax (hCB1R [2]; [7]) [%] | body temperature (male C57BL/6 mice [3]) | anti-nociceptive effect, tail-flick (male C57BL/6 mice [4]) | effect on cAMP inhibition by 100 nM ∆9-THC (hCB1R [5]) | Emax (hCB1R [5]; [8]) [%] | catalepsy (male C57BL/6 mice [6]) | Ki (hCB1R [1]) [µM] | effect on [3H]CP55,940 displacement by 100 nM ∆9-THC (hCB1R [1]) | Emax (hCB1R [2]; [9]) [%] | Emax (hCB1R [5]; [11]) [%] | effect on cAMP inhibition by 100 nM ∆9-THC (hCB1R [5]; [12]) | also measured
1 | CCCCCc1cc(O)c2c(c1)OC(C)(C)[C@@H]1CCC(CO)=C[C@@H]21 [11-OH-∆^9-THC] | 70 ± 1.7 | 47 ± 9.4 | greater hypothermia | greater hypothermia and anti-nociceptive responses relative to ∆^9-THC | inhibited the activity of 100 nM ∆^9-THC in a concentration-dependent manner | 28 ± 3.9 | equal catalepsy | – | – | – | – | – | EC50 (hCB1R [2]): > 10 µM; effect on βarrestin2 recruitment by 100 nM ∆9-THC (hCB1R [2]): elevated βarrestin2 recruitment above the activity of 100 nM ∆^9-THC; EC50 (hCB1R [5]): 0.011 µM
2 | CCCCCc1cc(O)c2c(c1)OC(C)(C)c1ccc(C)cc1-2 [CBN, cannabinol] | 71 ± 3.1 | 6.9 ± 0.96 | did not produce catalepsy or reduce body temperature | did not produce such effect | neither ∆^8-THC nor CBN produced a significant change in cAMP inhibition | 64 ± 4.6 | did not produce catalepsy | 0.14 | – | – | – | – | EC50 (hCB1R [2]): > 10 µM; EC50 (hCB1R [5]): 0.049 µM; fold less potent than CP55,940 in cAMP inhibition (hCB1R [5]): ~49 x
3 | CCCCCCC(C)(C)c1ccc(C2CC(O)CCC2CCCO)c(O)c1 (centres unmarked) [CP55,940, reference compound] | 1.0 ± 4.7 | 100 ± 3.3 | – | – | – | 100 ± 6.2 | – | – | – | – | – | – | –
4 | COc1cc(/C=C/C(=O)CC(=O)/C=C/c2ccc(O)c(OC)c2)ccc1O [Curcumin, curcumin] | 100 ± 2.0 | – | – | – | – | – | – | > 10 | did not significantly alter [^3H]CP55,940 displacement | 8.9 ± 2.2 | 6.2 ± 0.76 | inhibited the activity of 100 nM ∆^9-THC in a concentration-dependent manner | EC50 (hCB1R [2]; [10]): > 10 µM; effect on ∆9-THC-dependent change of body temperature (male C57BL/6 mice [3]): capable of blocking ∆^9-THC’s effects on catalepsy and body temperature; effect on ∆9-THC-dependent anti-nociception, tail-flick (male C57BL/6 mice [4]): blocked ∆^9-THC’s effect in the nociception test; EC50 (hCB1R [5]; [13]): > 10 µM; effect on ∆9-THC-dependent catalepsy (male C57BL/6 mice [6]): capable of blocking ∆^9-THC’s effects on catalepsy
5 | O=C(O[C@@H]1Cc2c(O)cc(O)cc2O[C@@H]1c1cc(O)c(O)c(O)c1)c1cc(O)c(O)c(O)c1 [Egc G, epigallocatechin gallate] | 95 ± 3.4 | – | – | – | – | – | – | > 10 | augmented the displacement of [^3H]CP55,940 from hCB1R by ∆^9-THC | 7.2 ± 0.85 | 5.6 ± 0.52 | inhibited the activity of 100 nM ∆^9-THC in a concentration-dependent manner | EC50 (hCB1R [2]; [10]): > 10 µM; EC50 (hCB1R [5]; [13]): > 10 µM
6 | CCCCCc1cc(O)cc(O)c1 [Olivetol, olivetol] | 57 ± 5.5 | – | – | – | – | – | – | 0.017 | did not significantly alter [^3H]CP55,940 displacement | 8.3 ± 2.1 | 5.6 ± 1.6 | did not change the cAMP inhibitory effects of 100 nM ∆^9-THC | EC50 (hCB1R [2]; [10]): > 10 µM; EC50 (hCB1R [5]; [13]): > 10 µM
7 | CCCCCCCCCCCCCCCC(=O)NCCO [PEA, palmitoylethanolamide] | 46 ± 5.3 | 5.6 ± 3.3 | – | – | augmented the activity of 100 nM ∆^9-THC in a concentration-dependent manner | 26 ± 1.8 | – | > 10 | did not significantly alter [^3H]CP55,940 displacement | – | – | – | concentration at which [3H]CP55,940 binding was reduced (hCB1R [1]): exceeding 1 μM; concentration at which CB1R- and ∆9-THC-dependent βarrestin2 recruitment was augmented (hCB1R [2]): approximately 1 μM; effect on βarrestin2 recruitment by 100 nM ∆9-THC (hCB1R [2]): slightly increased βarrestin2 recruitment; effect on ∆9-THC-dependent change of body temperature (male C57BL/6 mice [3]): capable of blocking ∆^9-THC’s effects on catalepsy and body temperature; effect on ∆9-THC-dependent anti-nociception, tail-flick (male C57BL/6 mice [4]): did not block the effect; concentration at which CB1R- and ∆9-THC-dependent inhibition of cAMP was augmented (hCB1R [5]): approximately 1 μM; type of agonism in cAMP inhibition (hCB1R [5]): weak partial agonist inhibition of cAMP accumulation; effect on ∆9-THC-dependent catalepsy (male C57BL/6 mice [6]): capable of blocking ∆^9-THC’s effects on catalepsy
8 | O=C(/C=C/C=C/c1ccc2c(c1)OCO2)N1CCCCC1 [Piperine, piperine] | 37 ± 2.8 | – | – | – | – | – | – | > 10 | did not significantly alter [^3H]CP55,940 displacement | 7.9 ± 0.97 | 5.5 ± 0.63 | did not change the cAMP inhibitory effects of 100 nM ∆^9-THC | EC50 (hCB1R [2]): > 10 µM; EC50 (hCB1R [5]): > 10 µM
9 | O=c1c(O)c(-c2ccc(O)c(O)c2)oc2cc(O)cc(O)c12 [Quercetin, quercetin] | – | – | – | – | – | – | – | – | – | – | – | – | effect on ∆9-THC-dependent change of body temperature (male C57BL/6 mice [3]): capable of blocking ∆^9-THC’s effects on catalepsy and body temperature; effect on ∆9-THC-dependent anti-nociception, tail-flick (male C57BL/6 mice [4]): blocked ∆^9-THC’s effect in the nociception test; effect on ∆9-THC-dependent catalepsy (male C57BL/6 mice [6]): capable of blocking ∆^9-THC’s effects on catalepsy
10 | CCCCCc1cc(O)c2c(c1)OC(C)(C)C1=C2CC(C)CC1 (centres unmarked) [∆^6a,10a-THC] | – | – | did not produce catalepsy or reduce body temperature | did not produce such effect | – | – | did not produce catalepsy | – | – | – | – | – | –
11 | CCCCCc1cc(O)c2c(c1)OC(C)(C)[C@@H]1CC=C(C)C[C@@H]21 [∆^8-THC] | 30 ± 5.0 | 21 ± 1.8 | did not produce catalepsy or reduce body temperature | produced an anti-nociceptive effect that was not different from ∆^9-THC | neither ∆^8-THC nor CBN produced a significant change in cAMP inhibition | 56 ± 9.6 | did not produce catalepsy | – | – | – | – | – | –

Source: publication PMC9458935, “Modulation of type 1 cannabinoid receptor activity by cannabinoid by-products from Cannabis sativa and non-cannabis phytomolecules” (Frontiers in Pharmacology, 2022)
